Test results from patent US5440016A, “Peptides of the formula (KFmoc) ZZZ and their uses” (priority 1993, dated 1995).
Square brackets hold non-standard residues; d marks the D form. Peptide text beside a SMILES is read from it.

Columns and labels:
[1] = system: Human red blood cells (RBCs); test: Hemolytic activity; format: cell-based; settings: for % hemolysis at 100 μg/ml: Tables 22-23
[2] = system: Escherichia coli ATCC 25922; settings: for IC50 (μg/ml) against E. coli: Tables 22-23; for IC50 against E. coli: Tables 3-5, lower parts (unnatural amino acids)
[3] = system: Staphylococcus aureus ATCC 29213; settings: for IC50 (μg/ml) against S. aureus: Tables 22-23; for IC50 against S. aureus: Tables 7-9, lower parts (unnatural amino acids)
[4] = system: Streptococcus sanguis ATCC 10556; settings: for IC50 (μg/ml) against S. sanguis: Tables 22-23; for IC50 against S. sanguis: Tables 11-13, lower parts (unnatural amino acids)
[5] = system: Candida albicans ATCC 10231; settings: for IC50 (μg/ml) against C. albicans: Tables 22-23; for IC50 against C. albicans: Tables 15-17, lower parts (unnatural amino acids)
P. aeruginosa ATCC 27853 = test: Antimicrobial assay, P. aeruginosa; settings: Tables 22-23
Description: Escherichia coli ATCC 25922 and P. aeruginosa ATCC 27853 were used as Gram-negative (-) and Staphylococcus aureus ATCC 29213 as Gram-positive (+) bacteria. Bacteria were grown overnight at 37° C. in Mueller-Hinton (MH) broth. This culture was reinoculated and incubated at 37° C. to reach the exponential phase of bacteria growth, i.e., a final bacterial suspension containing 10^5 to 5×10^5 colony-forming units (CFU)/ml. The concentration of cells was established by plating 100 μl of different dilutions of the culture solution (e.g., 10^-2, 10^-3 and 10^-4) onto solid agar plates.
Following an overnight incubation at 37° C., the CFU thus formed were counted on each agar plate. In 96-well tissue culture plates, as control blanks, eight wells per plate contained only medium, while as a positive growth control, eight other wells contained medium plus cells.
The plates were incubated overnight at 37° C., and the optical density (OD) determined at 620 nm after different times of incubation.

| Molecule | % hemolysis at 100 μg/ml [1] [%] | IC50 (μg/ml) against E. coli [2] [µg/mL] | IC50 (μg/ml) against S. aureus [3] [µg/mL] | IC50 (μg/ml) against S. sanguis [4] [µg/mL] | IC50 (μg/ml) against C. albicans [5] [µg/mL] | IC50 (μg/ml) against P. aeruginosa (P. aeruginosa ATCC 27853) [µg/mL] | HD50 (concentration necessary to lyse 50% of the cells) ([1]; Tables 18-21) [µg/mL] | IC50 against E. coli [2] [μg/m] | IC50 against S. aureus [3] [μg/m] | IC50 against S. sanguis [4] [μg/m] | IC50 against C. albicans [5] [μg/m] | HD50 (concentration necessary to lyse 50% of the cells) ([1]; Table 20, lower part) [μg/m] |
| --- | --- | --- | --- | --- | --- | --- | --- | --- | --- | --- | --- | --- |
| CC(=O)N[C@@H](CCCNC(=N)N)C(=O)N[C@@H](CCCNC(=N)N)C(=O)N[C@@H](Cc1c[nH]c2ccccc12)C(=O)N[C@@H](Cc1c[nH]c2ccccc12)C(=O)N[C@@H](CS)C(=O)N[C@@H](CS)C(N)=O [Ac-RRWWCC-NH2] (Ac-RRWWCC-NH2) | 9.5 | 54 to 68 | 47 to 63 | 92 to 94 | 162 to 166 | 86 to 88 | – | – | – | – | – | – |
| CC(=O)N[C@H](CCCNC(=N)N)C(=O)N[C@H](CCCNC(=N)N)C(=O)N[C@H](Cc1c[nH]c2ccccc12)C(=O)N[C@H](Cc1c[nH]c2ccccc12)C(=O)N[C@H](CS)C(=O)N[C@H](CCCNC(=N)N)C(N)=O [Ac-rrwwcr-NH2] (Ac-[dR][dR][dW][dW][dC][dR]-NH2) | 2.0 | 10 to 11 | 9 to 13 | 14 to 15 | 68 to 78 | 28 to 29 | – | – | – | – | – | – |
| (KFmoc)WY(dOrn)-NH2 | – | – | – | – | – | – | 67 | 35 | 5 | 7 | 359 | – |
| (KFmoc)Wf(Bala)-NH2 | – | – | – | – | – | – | – | 70 | 11 | 10 | 170 | 360 |
| (KFmoc)Wf(Hyp)-NH2 | – | – | – | – | – | – | – | 44 | 5 | 8 | 95 | 37 |
| (KFmoc)Wf(KCBZ)-NH2 | – | – | – | – | – | – | – | 28 | 3 | 4 | 58 | 52 |
| (KFmoc)Wf(aABA)-NH2 | – | – | – | – | – | – | – | 21 | 6 | 7 | 72 | 241 |
| (KFmoc)Wf(aAIB)-NH2 | – | – | – | – | – | – | – | 27 | 4 | 4 | 62 | 383 |
| (KFmoc)Wf(dOrn)-NH2 | – | – | – | – | – | – | – | 19 | 4 | 4 | 54 | 42 |
| (KFmoc)ci(Hyp)-NH2 | – | – | – | – | – | – | 39 | 52 | 8 | 8 | 205 | – |
| (KFmoc)ci(KCBZ)-NH2 | – | – | – | – | – | – | 53 | 15 | 5 | 3 | 78 | – |
| (KFmoc)ci(dOrn)-NH2 | – | – | – | – | – | – | 77 | 20 | 4 | 2 | 121 | – |
| Ac-RRWWCL-NH2 [Ac-RRWWCL-NH2] | 5.0 | 19 to 22 | – | 18 to 21 | 65 to 95 | 46 to 54 | – | – | – | – | – | – |
| MagaininII-NH2 [reference compound] | – | 72 to 98 | 32 to 64 | 143 to 235 | 41 to 42 | 150 to 200 | – | – | – | – | – | – |
